The numbers were not newly measured in patent US9913866B2, “Selective cell targeting using adenovirus and chemical dimers” (priority 2012, dated 2018), which cites them from elsewhere.

In data set [1] the target is FKBP and a mutant FRB domain (mTOR mutation T2098L) (Homo sapiens, UniProt P42345+P62942, T2098L).
The next data set addresses FKBP and wt FRB domain (Homo sapiens, UniProt P62942).

Sequence of FKBP and a mutant FRB domain (mTOR mutation T2098L) (P42345 2012-2144 T2098L limits assumed): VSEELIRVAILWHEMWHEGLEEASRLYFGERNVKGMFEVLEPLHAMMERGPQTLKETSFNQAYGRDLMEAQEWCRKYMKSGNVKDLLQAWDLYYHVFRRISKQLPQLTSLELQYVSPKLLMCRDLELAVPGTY
Sequence of FKBP and a mutant FRB domain (mTOR mutation T2098L) (P62942 2-108 limits assumed): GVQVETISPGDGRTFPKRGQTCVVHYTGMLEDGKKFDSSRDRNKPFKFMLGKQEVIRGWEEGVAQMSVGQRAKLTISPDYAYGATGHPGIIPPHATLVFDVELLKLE
Sequence of FKBP and wt FRB domain (P62942 2-108 limits assumed): as above

For the compound `CO[C@H]1[C@@H](O)[C@H](C)C[C@H](C)/C=C/C=C/C=C(\C)[C@@H](c2c[nH]c3c(C)cccc23)C[C@@H]2CC[C@@H](C)[C@@](O)(O2)C(=O)C(=O)N2CCCC[C@H]2C(=O)O[C@H]([C@H](C)C[C@@H]2CC[C@@H](O)[C@H](OC)C2)C[C@H](O)[C@H](C)/C=C(\C)[C@H]1O` [AP21967], the heterodimer formation result in data set [1] is recorded as “able to form stable heterodimers”; at FKBP and wt FRB domain, “not with the wt FRB domain”.
